In patent US20260224512A1, “USE OF 5-METHOXY-2-AMINOINDAN ("MEAI") IN METHODS FOR TREATING METABOLIC SYNDROME” (Clearmind Labs Corp., priority 2022, published 2026):

Experiments:
Format in all cases: in vivo
C57BL/6 mice [1] = assay: Acute single-dose tolerability of MEAI
Experimental: Male 6-week-old C57BL/6 mice (Envigo, Israel) were maintained under a 12-h light/dark cycle and fed ad libitum. A total of 32 animals were divided into four experimental groups (N=8 mice per group) receiving single doses of 40, 60, or 100 mg/kg of MEAI or vehicle (sterile water), which was administered via oral gavage two hours prior to the dark phase. The animals were monitored for 48 hours post-dose for drug tolerability, food and water intakes as well as activity and metabolic parameters. At the end of the experiment, the animals were euthanized, and tissues (brain, liver, fat, and kidney) and blood were collected and stored frozen for future analyses. To generate diet-induced obesity, C57BI6/J mice were fed either a high-fat diet (HFD) (60% of calories from fat, 20% from protein, and 20% from carbohydrates; Research Diet, D12492) or a standard laboratory diet (STD, 14% fat, 24% protein, 62% carbohydrates; NIH-31 rodent diet) for 18 weeks.

DIO mouse model [2] = assay: Glucose tolerance test (ipGTT), insulin tolerance test (ipITT) and glycemic parameters in DIO mice; conditions: 40 mg/kg/day
Experimental: (§1) Effect of MEAI on Obesity. Male C57BL/6 mice were used to establish DIO by feeding them a high-fat diet (HFD; 60% Kcal fat, 20% Kcal protein, and 20% Kcal carbohydrates; Research Diet, D12492) for 18 weeks. After this period, mice were treated with either vehicle (sterile water, N=8) or MEAI (N=11) daily for 28 days by gavage at a dose of 40 mg/kg/day. Age-matched control mice (N=10) on a standard diet (STD; 14% Kcal fat, 24% Kcal protein, 62% Kcal carbohydrates; NIH-31 rodent diet) and received vehicle daily. The body weight of all mice was monitored daily, and total body fat and lean mass were determined by EchoMRI-100H™ (Echo Medical Systems LLC, Houston, TX, USA). On Day 29, at the end of the experimental period, mice were euthanized by a cervical dislocation under anesthesia. The kidneys, brain, liver, and fat pads were removed and weighed, and samples were either snap-frozen or fixed in buffered 4% formalin. Trunk blood was collected to determine biochemical parameters.
Glucose Tolerance Test (ipGTT) and the Insulin Tolerance Test (ipITT). On day 25 of the experiment, mice were subjected to an overnight fasting and then injected with glucose (1.5 g/kg i.p.) on the following day (day 26). Blood glucose levels were determined at 0, 15, 30, 45, 60, 90, and 120 min after injection using the Contour® glucometer (Bayer, Pittsburgh, PA, USA). The mice were then fasted for 6 h on the next day (day 27) before being administered insulin (0.75 U/kg, i.p.; Actrapid vials, Novo Nordisk A/S, Bagsværd, Denmark). Blood glucose levels were determined at the same intervals as described above. To assess insulin resistance, the homeostasis model assessment insulin resistance (HOMA-IR) was calculated as fasting serum insulin ([μU/mL]×fasting plasma glucose [mmol/L]/22.5). The relative insulin sensitivity index (ISI) was calculated as 1/(glucose×insulin)×1000, with glucose expressed as mg/dl and insulin as mU/L.
(§2) Blood and urine biochemistry. Serum levels of alanine aminotransferase (ALT), aspartate aminotransferase (AST), alkaline phosphatase (ALP), cholesterol, triglycerides, high-density lipoprotein (HDL), and low-density lipoprotein (LDL) were determined by using the Cobas C-111 chemistry analyzer (Roche, Switzerland). Blood urea nitrogen (BUN) was calculated based on serum urea levels as follows: BUN (mg/dL)=Urea (mg/dL)/2.1428. Fasting blood glucose was measured using the Contour® glucometer (Bayer, Pittsburgh, PA). Serum insulin was determined using an Ultra-Sensitive Mouse Insulin ELISA kit (Crystal Chem, Inc., Elk Grove Village, IL, USA).

DIO mouse model [3] = assay: Blood biochemistry in DIO mice; conditions: 40 mg/kg/day
Experimental: as §1, §2

DIO mouse model [4] = assay: Hepatic triglyceride and cholesterol content, Oil Red O staining in DIO mice; conditions: 40 mg/kg/day
Experimental: as §1
Hepatic Triglyceride and Cholesterol Content. Liver tissue was extracted as described in (Tam et al., 2012), and its cholesterol and triglycerides contents were determined using a Cobas C-111 chemistry analyzer (Roche, Switzerland).
Histopathology. First, 5 μm paraffin-embedded liver sections from 5 animals per group were stained with hematoxylin-eosin staining. Liver images were captured using a Zeiss Axio Scope A1 light microscope (Carl Zeiss AG, Jena, Germany equipped with a Zeiss AxioCam ICc5 color camera. Ten random 40× fields of view were taken from each animal to obtained representative images.
Oil Red O staining. Liver cryosections (8 μm) were stained with Oil Red O (Cat #ab150678; Abcam) following the manufacturer's protocol. Images were acquired as described above. For quantitative analysis of Oil Red O staining, the area of lipid droplets in the liver cryosections was measured using the ImageJ software.

DIO mouse model [5] = assay: Kidney and liver weight in DIO mice; conditions: 40 mg/kg/day, HFD-fed mice
Experimental: as §1

C57BL/6 mice [6] = assay: Sucrose preference test; conditions: single dose 40 mg/kg
Experimental: Sucrose Preference Test. Thirteen-week-old male C57BL/6 mice maintained on a STD and housed individually were habituated to two water bottles in their home cage for 48 h prior to the test. Baseline intake was measured by weighing the bottles. On the test day (Day 1), 2 h before the onset of the dark phase, fresh water and a 1.5% sucrose solution were added to the bottles, and mice were subsequently treated orally with MEAI (40 mg/kg, N=8) or sterile water (N=8). The mice were allowed to drink from either bottle freely for 24 h, after which the bottles were weighed to measure consumption. The study was repeated for an additional day (Day 2), with the bottles switched in position (in the cage) to account for side preference. The sucrose and water intake over the two days were averaged, and the sucrose preference index was calculated as the average consumed sucrose solution divided by the average volume of total consumed liquid (average water plus average sucrose solution).

[7] = compared to HFD vehicle control
[8] = compared to HFD vehicle-treated group

Which results are given for `COc1ccc2c(c1)CC(N)C2` (stereo not drawn) [MEAI, 5-methoxy-2-aminoindan]?
deaths after administration (C57BL/6 mice [1]; single oral dose 100 mg/kg, within a few hours, with stress of metabolic testing): two subjects in the 100 mg/kg group died; drug tolerability, changes in behavior (C57BL/6 mice [1]; single oral dose 40 and 60 mg/kg, lean mice): well-tolerated, with no observable changes in behavior; HOMA-IR (DIO mouse model [2]): beneficial effects; fasting blood glucose (DIO mouse model [2]): reduced; glucose metabolism (glucose and insulin tolerance tests) (DIO mouse model [2]): significant improvement; insulin levels (DIO mouse model [2]): reduced; insulin sensitivity (insulin tolerance test) (DIO mouse model [2]): normalized; insulin sensitivity index (ISI) (DIO mouse model [2]): beneficial effects; HDL-to-LDL ratio (DIO mouse model [3]; HFD-fed mice): increased; blood urea nitrogen (BUN) levels (DIO mouse model [3]; HFD-fed mice): slight improvements; cholesterol levels (DIO mouse model [3]; HFD-fed mice, not statistically significant): tendency towards decreased; circulating triglyceride levels (DIO mouse model [3]; any of the study groups): no significant alterations; HDL levels (DIO mouse model [3]; compared to HFD vehicle group): without notable changes; LDL levels (DIO mouse model [3]; compared to HFD vehicle group): significantly reduced; ALP levels (DIO mouse model [3]; compared to HFD-vehicle group): significantly reduced; ALT levels (DIO mouse model [3]; compared to HFD-vehicle group): did not significantly alter; AST levels (DIO mouse model [3]; compared to HFD-vehicle group): did not significantly alter; hepatic cholesterol levels (DIO mouse model [4]; [7]): trend toward a reduction; liver triglycerides (DIO mouse model [4]; [7]): significant reductions; Oil Red O staining (DIO mouse model [4]; [8]): decrease; lipid vacuole numbers (DIO mouse model [4]; [8]): reduced; kidney-to-body weight ratio (DIO mouse model [5]): normalized; liver weight (DIO mouse model [5]): reduced; liver weight to body weight ratio (DIO mouse model [5]): normalized; water intake levels (C57BL/6 mice [6]): without any accompanying decrease; acute preference for sucrose solution (C57BL/6 mice [6]; 1.5% sucrose vs water, most evident in initial 24-hour period): significantly reduced; preference for sucrose solution (C57BL/6 mice [6]; subsequent 24-hour period): slight reduction
